Measurements taken from paper PMC9029893 (International Journal of Molecular Sciences, 2022).

Assays:
AoSMC cells [1] = assay: WST-1 cell viability assay, AoSMC; details: Homo sapiens, 24 h, read-out: Viability-IC50, AoSMC cells
Protocol: (§1) HUVEC and AoSMC viability were tested using the WST-1 cell viability assay (Takara Bio Europe, Saint-Germain-en-Laye, France). […] Briefly, HUVEC and AoSMC were seeded at densities of 7500 and 5000 cells per well on 96-well plates. The cells were cultivated for up to 24 h to achieve 70% confluency, and subsequently treated with tested compounds diluted in medium (1 + 9; v = 100 μL) or pure medium (control). The plates were incubated at 37 °C (5% CO2) for the next 24 h. Then, the cells were rinsed with 100 μL culture medium, and WST-1 reagent diluted in medium (100 μL) was added; the plates were then incubated again (37 °C, 5% CO2) for another 90 min. The absorbance was measured at 450 nm (iMARK, Bio-Rad, Hercules, CA, USA). The experiments were performed in multiplicate (n = 8) and the results were presented as mean ± SD. The cell viability was expressed as a percentage of the control samples, which constituted 100% viability. […] The variability coefficient of the method was estimated (CV(HUVEC) = 8.94%, n = 8; CV(AoSMC) = 5.84%, n = 10).

HUVEC cells [2] = assay: Glucose utilization assay (2-NBDG uptake); format: cell-based, human; details: 24 h, then insulin and 2-NBDG
Protocol: HUVEC were seeded at a density of 20,000 cells per well in 48-well plates, and were cultured in standard conditions for 24 h (medium EGM-2; volume 0.2 mL). Following this, compounds 1–8 were added at concentrations of 0.1 and 0.3 mM, and the HUVECs were incubated for another 24 h. Cells treated with ᴅ-glucose (final concentration in a sample 0.1 mM) were used as positive controls. On the following day, the cells were rinsed with PBS (Biomed Lublin, Lublin, Poland) and cultured for two hours in glucose-free DMEM medium supplemented with 1% BSA (bovine serum albumin, Sigma, St. Louis, MO, USA). Then, the cells were co-treated with insulin (final concentration 0.0001 mM) for 30 min. Afterwards, the medium was discarded and the cells were treated with 2-NBDG (final concentration 0.05 mM) for 30 min, followed by removal of the solutions of each well. The cells were washed twice with 100 µL PBS, and lysed using 1% Triton X-100 solution in PBS. The fluorescence was recorded using a microplate reader (Biotek, Instruments, Winooski, VT, USA) at 480/530 nm.
The concentration of intracellular 2-NBDG was calculated using a calibration curve obtained using 2-NBDG at concentrations ranging from 0.0001 to 0.025 mM in lysis buffer. The results are presented as mean ± SD, n = 4–6. The coefficient of variation for the assay was calculated (CV = 2.2%, n = 8).

HUVEC cells [3] = assay: WST-1 cell viability assay, HUVEC; details: Homo sapiens, HUVEC, 24 h, read-out: Viability-IC50, HUVEC cells
Protocol: as §1

HUVEC cells [4] = assay: HUVEC integrity in RTCA-DP system (normalized cell index); format: cell-based, human
Protocol: The effects of sulfonamides 1–8 on the integrity and barrier properties of HUVEC were examined in real-time using a cell electric impedance monitoring system (Real-Time Cell Analyzer; Roche & ACEA Biosciences, Santa Clara, CA, USA), which is based on tracking electrical impedance signals. Any changes in cell status, adhesion, and morphology are expressed by parameter Cell Index (CI). The experimental protocol has been described previously. Briefly, the cells were seeded at a density of 15,000 cells per well on E-16 plates (Roche & ACEA Biosciences, Santa Clara, CA, USA), and cultured until the cells achieved plateau phase. Then, the medium was discarded from each well, and the solutions of the test compounds dissolved in cell culturing medium (100 μL) or pure medium (100 μL, control) were added. The measurements were then carried out for 48 h. The results are presented as mean ± SD of ‘normalized cell index’ (nCI), which is calculated by the division of a CI value at a certain time point by the CI value at a reference time point. The experiments were conducted in multiplicate (n = 4–6). The method was validated and the coefficient of variability (CV) was calculated as 9.17%–15.2%, depending on the measured time point (n = 6).

HUVEC cells [5] = details: 0.006–1.5 mM; cited from earlier work
AoSMC cells [6] = details: cited from earlier work
[7] = system: clot formation and fibrinolysis in human citrate plasma; details: over the entire concentration range; cited from earlier work
[8] = system: tissue plasminogen activator (t-PA) release from HUVEC; details: cited from earlier work
HUVEC cells [9] = assay: HUVEC migration, wound-healing assay (JuLI Stage); format: cell-based, human
Protocol: The effects of compounds 1–5 on HUVEC migration were determined using the JuLI™ Stage system (NanoEntek, Seoul, Korea): a real-time cell history recorder allowing for live cell imaging and analysis. The procedure for the migration experiments has been published elsewhere in more detail. Concisely, HUVECs were seeded at a density of 10,000 cells per well on 96-well plates and incubated at standard conditions for 24 h. Following this, a wound was made with a scratcher (NanoEntek, Seoul, Korea). The cells were then rinsed with 100 μL of fresh EGM2 medium, and treated with biguanides 1–5 at the concentrations of 0.3 and 1.0 mM. The cells were incubated and monitored continuously every 10 min for 36 h at 37 °C, 5% CO2. Analysis of obtained images of cell migration, and measurements of the width of the scratch area were performed using dedicated software (NanoEntek, Seoul, Korea). The results were presented as mean ± SD, n = 4–8. The CV for the method was estimated as 14.2–24.4%, depending on the time point (n = 8).

HUVEC cells [10] = details: cited from earlier work

Structure (SMILES): CN(C)C(=N)N=C(N)NS(=O)(=O)c1ccccc1C#N [Compound 6]
- IC50 (AoSMC cells [1]): 1680 ± 210 µM
- Glucose uptake (intracellular 2-NBDG) (HUVEC cells [2]; 0.1 mM): 0.0128 ± 0.0007 mM
- Glucose uptake (intracellular 2-NBDG) (HUVEC cells [2]; 0.3 mM): 0.0129 ± 0.0007 mM
- IC50 (HUVEC cells [3]): 461 ± 130 µM
- normalized Cell Index (nCI) (HUVEC cells [4]; 0.3 mM, 3 hours): 0.317 ± 0.050
- normalized Cell Index (nCI) (HUVEC cells [4]; 0.3 mM, 6 hours): 0.424 ± 0.053
- normalized Cell Index (nCI) (HUVEC cells [4]; 0.3 mM, 12 hours): 0.388 ± 0.07
- normalized Cell Index (nCI) (HUVEC cells [4]; 0.3 mM, 24 hours): 0.280 ± 0.018
- normalized Cell Index (nCI) (HUVEC cells [4]; 0.3 mM, 36 hours): 0.111 ± 0.026
- normalized Cell Index (nCI) (HUVEC cells [4]; 1.0 mM, 3 hours): 0.010 ± 0.003
- normalized Cell Index (nCI) (HUVEC cells [4]; 1.0 mM, 6 hours): 0.016 ± 0.005
- normalized Cell Index (nCI) (HUVEC cells [4]; 1.0 mM, 12 hours): 0.019 ± 0.005
- normalized Cell Index (nCI) (HUVEC cells [4]; 1.0 mM, 24 hours): 0.013 ± 0.003
- normalized Cell Index (nCI) (HUVEC cells [4]; 1.0 mM, 36 hours): 0.009 ± 0.003

Structure (SMILES): CN(C)C(=N)N=C(N)NS(=O)(=O)c1cccc(C#N)c1 [Compound 7]
- IC50 (AoSMC cells [1]): 1890 ± 160 µM
- Glucose uptake (intracellular 2-NBDG) (HUVEC cells [2]; 0.1 mM): 0.0131 ± 0.0013 mM
- Glucose uptake (intracellular 2-NBDG) (HUVEC cells [2]; 0.3 mM): 0.0139 ± 0.001 mM
- IC50 (HUVEC cells [3]): 304 ± 120 µM
- normalized Cell Index (nCI) (HUVEC cells [4]; 0.3 mM, 3 hours): 0.283 ± 0.050
- normalized Cell Index (nCI) (HUVEC cells [4]; 0.3 mM, 6 hours): 0.367 ± 0.027
- normalized Cell Index (nCI) (HUVEC cells [4]; 0.3 mM, 12 hours): 0.333 ± 0.030
- normalized Cell Index (nCI) (HUVEC cells [4]; 0.3 mM, 24 hours): 0.255 ± 0.26
- normalized Cell Index (nCI) (HUVEC cells [4]; 0.3 mM, 36 hours): 0.094 ± 0.014
- normalized Cell Index (nCI) (HUVEC cells [4]; 1.0 mM, 3 hours): 0.013 ± 0.004
- normalized Cell Index (nCI) (HUVEC cells [4]; 1.0 mM, 6 hours): 0.018 ± 0.001
- normalized Cell Index (nCI) (HUVEC cells [4]; 1.0 mM, 12 hours): 0.020 ± 0.001
- normalized Cell Index (nCI) (HUVEC cells [4]; 1.0 mM, 24 hours): 0.016 ± 0.002
- normalized Cell Index (nCI) (HUVEC cells [4]; 1.0 mM, 36 hours): 0.013 ± 0.003

Structure (SMILES): CN(C)C(=N)N=C(N)NS(=O)(=O)c1ccc(C#N)cc1 [Compound 8]
- IC50 (AoSMC cells [1]): 1570 ± 140 µM
- Glucose uptake (intracellular 2-NBDG) (HUVEC cells [2]; 0.1 mM): 0.0131 ± 0.0009 mM
- Glucose uptake (intracellular 2-NBDG) (HUVEC cells [2]; 0.3 mM): 0.0138 ± 0.0015 mM
- IC50 (HUVEC cells [3]): 791 ± 130 µM
- normalized Cell Index (nCI) (HUVEC cells [4]; 0.3 mM, 3 hours): 0.312 ± 0.087
- normalized Cell Index (nCI) (HUVEC cells [4]; 0.3 mM, 6 hours): 0.461 ± 0.015
- normalized Cell Index (nCI) (HUVEC cells [4]; 0.3 mM, 12 hours): 0.416 ± 0.062
- normalized Cell Index (nCI) (HUVEC cells [4]; 0.3 mM, 24 hours): 0.321 ± 0.038
- normalized Cell Index (nCI) (HUVEC cells [4]; 0.3 mM, 36 hours): 0.198 ± 0.055
- normalized Cell Index (nCI) (HUVEC cells [4]; 1.0 mM, 3 hours): 0.006 ± 0.004
- normalized Cell Index (nCI) (HUVEC cells [4]; 1.0 mM, 6 hours): 0.029 ± 0.006
- normalized Cell Index (nCI) (HUVEC cells [4]; 1.0 mM, 12 hours): 0.021 ± 0.004
- normalized Cell Index (nCI) (HUVEC cells [4]; 1.0 mM, 24 hours): 0.001 ± 0.001
- normalized Cell Index (nCI) (HUVEC cells [4]; 1.0 mM, 36 hours): 0.001 ± 0.001

Structure (SMILES): OC[C@H]1OC(O)[C@H](O)[C@@H](O)[C@@H]1O (stereo partly drawn) [D-glucose, reference compound]
- Glucose uptake (intracellular 2-NBDG) (HUVEC cells [2]; 0.1 mM): 0.0014 ± 0.0001 mM

Structure (SMILES): CN(C)C(=N)N=C(N)N [Metformin, dimethyl biguanide, reference compound]
- effect on integrity and adherence of HUVEC cells (HUVEC cells [5]): not found to affect
- effect on viability and morphology of AoSMC cells (AoSMC cells [6]): not affect
- Glucose uptake (intracellular 2-NBDG) (HUVEC cells [2]; 0.1 mM): 0.0146 ± 0.0009 mM
- Glucose uptake (intracellular 2-NBDG) (HUVEC cells [2]; 0.3 mM): 0.0165 ± 0.0006 mM
- effect on overall potential of clot formation and fibrinolysis (CLAUC) [7]: did not affect
- effect on t-PA release [8]: significantly elevate
- wound width (HUVEC cells [9]; 0.3 mM, 6 hours): 570.1 ± 119.9 µm
- wound width (HUVEC cells [9]; 0.3 mM, 12 hours): 467.8 ± 106.5 µm
- wound width (HUVEC cells [9]; 0.3 mM, 18 hours): 412.1 ± 121.8 µm
- wound width (HUVEC cells [9]; 0.3 mM, 24 hours): 405.0 ± 120.7 µm
- wound width (HUVEC cells [9]; 0.3 mM, Start): 728.6 ± 62.5 µm
- wound width (HUVEC cells [9]; 1.0 mM, 6 hours): 565.4 ± 31.5 µm
- wound width (HUVEC cells [9]; 1.0 mM, 12 hours): 495.7 ± 20.0 µm
- wound width (HUVEC cells [9]; 1.0 mM, 18 hours): 482.7 ± 10.0 µm
- wound width (HUVEC cells [9]; 1.0 mM, 24 hours): 419.8 ± 42.3 µm
- wound width (HUVEC cells [9]; 1.0 mM, Start): 670.4 ± 29.2 µm
- effect on viability and morphology of HUVEC cells (HUVEC cells [10]): not affect
